Experimental data as given in patent US9266853B2, “Orally available viridiofungin derivative possessing anti-HCV activity” (Chugai Seiyaku Kabushiki Kaisha, priority 2012, dated 2016).

Experiments:
[1] = test system: firefly luciferase HCV replicon cells (Huh3-1); test: Replicon assay (firefly luciferase HCV replicon cells); assay type: cell-based, Hepatitis C virus; details: for IC50: Hepatitis C virus, 72 h, Huh3-1 replicon cells, 3 days culture, luciferase readout, read-out: Anti-replicon Activity (IC50); for IC50 of antireplicon activity converted to: unit converted assuming liver specific gravity 1 g=1 mL (FIGS. 1 to 3)
Description: As a reporter gene, for example, a gene into which a luciferase gene derived from a firefly is introduced can be used. Specifically, according to the method of Krieger et al. (N. Krieger et al., J. Virology: 75, 4614-24, 2001), a firefly luciferase gene is introduced, in a form fused with a neomycin-resistant gene, immediately downstream of an internal ribosome entry site (IRES) of the HCV gene. After synthesizing the RNA in vitro, it is introduced into suitable cells by, for example, electroporation to obtain firefly luciferase HCV replicon cells. These cells are seeded in wells of 96-well plates, to which a diluted test substance is added, and cultured for several days. The substrate is then added, and the luminescence is measured with a plate reader.
According to the method of Krieger et al. (N. Krieger et al., J. Virology: 75, 4614-24, 2001), a firefly luciferase gene was introduced, in a form fused with a neomycin-resistant gene, immediately downstream of an internal ribosome entry site (TRES) of the HCV gene. After synthesizing the RNA in vitro, it was introduced into Huh7 cells by electroporation and the cells were isolated as G418-resistant clones.
After culturing, the white plates were used for the replicon assay with Steady-Glo Luciferase Assay System (Promega cat. No. E2520). More specifically, 100 μL per well of the reagent was added, it was mixed 3-4 times by pipetting and allowed to stand for 5 minutes, and subsequently the luminescence was measured with a plate reader (EnVision™ 2103 Multilabel Reader).

[2] = Cytotoxicity test (WST-8); assay type: cell-based; details: human, firefly luciferase HCV replicon cells (Huh3-1); Huh3-1 replicon cells, 3 days culture, Cell counting kit-8; read-out: Cytotoxicity WST8 (IC50)
Protocol: The firefly luciferase HCV replicon cells (Huh3-1) were suspended in Dulbecco's MEM (Gibco cat. No. 10,569-010) containing 5% fetal bovine serum (Hyclone cat. No. SH30071.03), seeded at 4500 cells/90 μL/well in 96-well plates, and cultured overnight in 5% CO2 at 37° C. After 20 hours, 10 μL per well of compounds prepared at a concentration 10 times the final concentration were added, and they were further cultured for 3 days.
Two series of assay plates, one series of white plates and another series of clear plates, were prepared and used for the assay.
Clear plates were used for a cytotoxicity test (WST-8). Cytotoxicity was measured using Cell counting kit-8 (Dojindo cat. No. CK04). More specifically, 100 μL of Cell counting kit-8 diluted 10-fold from the stock solution with PBS (SIGMA cat. No. D8537) was added to each well in the aforementioned clear plates from which medium was removed and the plates were incubated at 37° C. for 30 to 60 minutes. Absorbance was measured at a wavelength of 460 nm and a control wavelength of 590 nm by a plate reader (EnVision™ 2103 Multilabel Reader). All values were expressed as differences from the background which was measured with neither cells nor drug and IC50 (50% inhibitory concentration) values of drugs were calculated based on the value when no drug was added defined as 0% inhibition.

CYP3A4 = CYP3A4 (Homo sapiens (Human), UniProt P08684); test: biochemical; assay type: in vitro ADME; details: for IC50: human liver microsomes, midazolam 0.5 μmol/L; for CYP Inhibition Time Dependent (TDI) (untreated/Pre-incubation), CYP3A4: microsomes
Protocol: (§1) <Incubation Mixture> • 100 mM phosphate buffer (pH 7.4) • 0.1 mg/mL of pooled human liver microsomes (male and female mixture, a pool of 50 donors) <NADPH Aqueous Solution> • 10 mM NADPH (final concentration 1 mM NADPH) <Measurement of Metabolite>
Warfarin was used as internal standard (IS).
To a 96 deep well plate was added 2.5 μL, of the test substance solution (×200 concentration), 442.5 μL of Incubation Mixture, and 5 μL of the substrate solution, and the solution was mixed and warmed to 37° C. for 5 minutes. To this incubation solution 50 μL of 10 mM NADPH was added to start the reaction, and incubated at 37° C. for 5 minutes. After the incubation, 100 μL of the Incubation Mixture was removed, added to 150 μL of isopropanol containing IS and mixed. […] The filtrate was used for LC-MS/MS analysis.
To a 96 deep well plate was added 2.5 μL of the test substance solution (×200 concentration), and 442.5 μL of Incubation Mixture, and the solution was mixed and warmed to 37° C. for 5 minutes. To this incubation solution 50 μL of 10 mM NADPH was added and preincubated at 37° C. for 30 minutes. […] After the reaction, 100 μL of the Incubation Mixture was removed, added to 150 μL of isopropanol containing IS and mixed. […] The filtrate was used for LC-MS/MS analysis.
(§2) Based on the metabolite production of the DMSO control group defined as 100, percent inhibitions of the metabolite production in the test substance group were determined, and inhibition curves were plotted at 5 concentrations. The test substance concentration showing 50% inhibition (IC50) was determined from the fitting curve of the inhibition curve.

CYP2C9 = CYP2C9 (Homo sapiens (Human), UniProt P11712); test: biochemical; details: for IC50: human liver microsomes, diclofenac 0.2 μmol/L; for TDI Ratio, CYP2C9: microsomes
Protocol: Tests were carried out according to the following experiment method.
as §1
After incubation, the concentrations of the produced metabolites were measured using LC-MS/MS (API4000 or 5500QTRAP). Warfarin was used as internal standard (IS). The concentration was calculated using a standard curve created using a metabolite standard solution.
To a 96 deep well plate was added 2.5 μL, of the test substance solution (×200 concentration), 442.5 μL of Incubation Mixture, and 5 μL of the substrate solution, and the solution was mixed and warmed to 37° C. for 5 minutes. To this incubation solution 50 μL of 10 mM NADPH was added to start the reaction, and incubated at 37° C. for 5 minutes. After the incubation, 100 μL of the Incubation Mixture was removed, added to 150 μL of isopropanol containing IS and mixed. This mixture was transferred onto a multi-screen filter, centrifuged at 500×g at 4° C. for 10 minutes. The filtrate was used for LC-MS/MS analysis.
To a 96 deep well plate was added 2.5 μL of the test substance solution (×200 concentration), and 442.5 μL of Incubation Mixture, and the solution was mixed and warmed to 37° C. for 5 minutes. To this incubation solution 50 μL of 10 mM NADPH was added and preincubated at 37° C. for 30 minutes. After the preincubation, 5 μL of the substrate solution was added and the solution was mixed and further incubated at 37° C. for 5 minutes for the reaction. After the reaction, 100 μL of the Incubation Mixture was removed, added to 150 μL of isopropanol containing IS and mixed. This mixture was transferred onto a multi-screen filter, centrifuged at 500×g at 4° C. for 10 minutes. The filtrate was used for LC-MS/MS analysis.
as §2
Time dependent inhibition (TDI) was calculated as a ratio of dividing IC50 of the sample without preincubation treatment by the IC50 value measured after the preincubation treatment.

[3] = Rat PK test (liver concentrations of active metabolites after oral prodrug); assay type: in vivo, Wistar rat
Protocol: The test was carried out according to the following protocol. • Animal: […] (Method of Analysis) Using LC-MS/MS (API 4000), standard curves for standard compounds were prepared, and the concentrations of the active metabolites No. 5514403 and No. 5526064 at the data points were calculated.

[4] = CYP3A4 (IC50 μM) Pre-incubation, 30 min preincubation with NADPH
[5] = CYP3A4 (IC50 μM) untreated, without preincubation
[6] = CYP2C9 (IC50 μM) Pre-incubation, 30 min preincubation with NADPH
[7] = CYP2C9 (IC50 μM) untreated, without preincubation
[8] = rat liver, 24 hours after dosing, prodrug p.o. 30 mg/kg once a day, 7 days
[9] = rat liver, prodrug p.o. 30 mg/kg once a day, 7 days

Chain of CYP2C9 (P11712 whole entry): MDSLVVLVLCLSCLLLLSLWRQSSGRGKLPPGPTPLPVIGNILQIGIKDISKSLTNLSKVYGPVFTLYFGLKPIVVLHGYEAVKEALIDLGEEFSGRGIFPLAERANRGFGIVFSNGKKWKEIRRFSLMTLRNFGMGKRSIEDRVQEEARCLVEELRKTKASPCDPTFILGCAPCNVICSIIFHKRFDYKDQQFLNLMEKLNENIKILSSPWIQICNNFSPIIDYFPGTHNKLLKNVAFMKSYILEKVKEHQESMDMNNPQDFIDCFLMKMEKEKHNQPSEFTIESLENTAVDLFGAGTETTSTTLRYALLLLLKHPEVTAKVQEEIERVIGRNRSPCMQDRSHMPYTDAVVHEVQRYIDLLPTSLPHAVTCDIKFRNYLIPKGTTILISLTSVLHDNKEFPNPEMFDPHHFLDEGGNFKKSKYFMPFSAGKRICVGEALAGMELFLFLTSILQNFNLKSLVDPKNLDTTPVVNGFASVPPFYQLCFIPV
Chain of CYP3A4 (P08684 whole entry): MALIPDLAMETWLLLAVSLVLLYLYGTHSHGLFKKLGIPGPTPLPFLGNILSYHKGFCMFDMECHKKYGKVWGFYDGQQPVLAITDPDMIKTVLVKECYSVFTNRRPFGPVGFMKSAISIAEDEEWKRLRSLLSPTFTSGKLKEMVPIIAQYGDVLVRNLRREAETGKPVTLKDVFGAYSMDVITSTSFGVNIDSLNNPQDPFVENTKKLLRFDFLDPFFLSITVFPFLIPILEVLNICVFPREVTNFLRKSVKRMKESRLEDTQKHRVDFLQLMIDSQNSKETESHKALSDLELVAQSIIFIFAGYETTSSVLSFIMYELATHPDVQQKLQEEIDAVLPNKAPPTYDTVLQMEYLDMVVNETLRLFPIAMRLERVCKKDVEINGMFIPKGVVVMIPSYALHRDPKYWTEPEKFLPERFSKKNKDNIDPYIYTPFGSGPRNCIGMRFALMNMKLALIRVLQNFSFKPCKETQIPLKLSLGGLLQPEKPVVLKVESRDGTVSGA

SMILES	IC50 [1]	IC50 of antireplicon activity converted to [1]	IC50 at 3 days [2]	IC50 (CYP3A4; [4])	IC50 (CYP3A4; [5])	CYP Inhibition Time Dependent (TDI) (untreated/Pre-incubation), CYP3A4 (CYP3A4)	IC50 (CYP2C9; [6])	IC50 (CYP2C9; [7])	TDI Ratio, CYP2C9 (CYP2C9)	concentration of active compound No. 5514403 in the liver [3, 8]	concentration of active metabolite No. 5526064 in the liver [3, 8]	exposure of the liver to the active drugs ([3]; rat, p.o., in comparison with No. 6809532 and No. 6811559)	presence of the active compound No. 5514403 in the liver [3, 9]
CCCCCCCC(F)(F)CCCCCC/C=C/[C@H](C(=O)N[C@@H](Cc1ccc(OCCCC)cc1)C(=O)OC)[C@@](O)(CCOC)C(=O)O [No. 5514403, (E)-(2S,3S)-3-[(S)-2-(4-butoxy-phenyl)-1-methoxycarbonyl-ethylcarbamoyl]-12,12-difluoro-2-hydroxy-2-(2-methoxy-ethyl)-nonadec-4-enoic acid]	0.0006 µM	0.48 ng/g	> 1 µM	11.9 µM	23.8 µM	1.98	19.6 µM	7.7 µM	0.39				
CCCCCCCC(F)(F)CCCCCC/C=C/[C@H](C(=O)N[C@@H](Cc1ccc(OCCCC)cc1)C(=O)O)[C@@](O)(CCOC)C(=O)O [No. 5526064, (E)-(2S,3S)-3-[(S)-2-(4-butoxy-phenyl)-1-carboxy-ethylcarbamoyl]-12,12-difluoro-2-hydroxy-2-(2-methoxy-ethyl)-nonadec-4-enoic acid]	0.00215 µM	1.44 ng/g	> 1 µM	11.8 µM	16.2 µM	1.37	24.4 µM	12.5 µM	0.51				
CCCCCCCC(F)(F)CCCCCC/C=C/[C@H](C(=O)N[C@@H](Cc1ccc(OCCCC)cc1)C(=O)OC)[C@@](O)(CCOC)C(=O)OCc1oc(=O)oc1C [No. 6808755, (5-methyl-2-oxo-[1,3]dioxol-4-yl)methyl (E)-(2S,3S)-3-[(S)-2-(4-butoxy-phenyl)-1-methoxycarbonyl-ethylcarbamoyl]-12,12-difluoro-2-hydroxy-2-(2-methoxy-ethyl)-nonadec-4-enoate]										≥ 100 ng/g	≥ 100 ng/g	significantly higher exposure of the liver to the active drugs	
CCCCCCCC(F)(F)CCCCCC/C=C/[C@H](C(=O)N[C@@H](Cc1ccc(OCCCC)cc1)C(=O)OC)[C@@](O)(CCOC)C(=O)OC [No. 6809532, Methyl (E)-(2S,3S)-3-[(S)-2-(4-butoxy-phenyl)-1-methoxycarbonyl-ethylcarbamoyl]-12,12-difluoro-2-hydroxy-2-(2-methoxy-ethyl)-nonadec-4-enoate, reference compound]													hardly detected
CCCCCCCC(F)(F)CCCCCC/C=C/[C@H](C(=O)N[C@@H](Cc1ccc(OCCCC)cc1)C(=O)OC)[C@@](O)(CCOC)C(=O)OCC(=O)OC [No. 6811559, Methoxycarbonylmethyl (E)-(2S,3S)-3-[(S)-2-(4-butoxy-phenyl)-1-methoxycarbonyl-ethylcarbamoyl]-12,12-difluoro-2-hydroxy-2-(2-methoxy-ethyl)-nonadec-4-enoate, reference compound]													hardly detected
